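Assay format: 96-well plates, 48-hour exposure. GI50: concentration for 50% inhibition of growth.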 Active and inactive are the calls of the source. Cut-off read from the data, not from the text of the source: active = GI50 up to about 1.1 µM and inactive = higher.
Experiments:
Test in all cases: NCI-60 cell line screen, 48 h
[1] = test system: 786-0
[2] = test system: A498
[3] = test system: A549
[4] = test system: ACHN
[5] = test system: CAKI-1
[6] = test system: CCRF-CEM
[7] = test system: COLO 205
[8] = test system: DLD-1
[9] = test system: DMS-114
[10] = test system: DMS-273
[11] = test system: EKVX
[12] = test system: HCC 2998
[13] = test system: HCT-116
[14] = test system: HCT-15
[15] = test system: HL-60
[16] = test system: HOP-62
[17] = test system: HT-29
[18] = test system: IGROV-1
[19] = test system: K562
[20] = test system: KM-20L2
[21] = test system: KM12
[22] = test system: LOX IMVI
[23] = test system: LXFL 529
[24] = test system: M14
[25] = test system: M19-MEL
[26] = test system: MOLT-4
[27] = test system: Malme-3M
[28] = test system: NCI-H23
[29] = test system: NCI-H460
[30] = test system: NCI-H522
[31] = test system: OVCAR-3
[32] = test system: OVCAR-4
[33] = test system: OVCAR-8
[34] = test system: RPMI-8226
[35] = test system: RXF 393
[36] = test system: RXF 631
[37] = test system: SF-268
[38] = test system: SF-295
[39] = test system: SF-539
[40] = test system: SK-MEL-2
[41] = test system: SK-MEL-5
[42] = test system: SK-OV-3
[43] = test system: SNB-19
[44] = test system: SNB-75
[45] = test system: SR
[46] = test system: SW-620
[47] = test system: U-251
[48] = test system: UACC-257
[49] = test system: UACC-62
[50] = test system: UO-31
[51] = test system: XF498
[52] = test system: HOP-18
[53] = test system: HOP-92
[54] = test system: NCI-H226
[55] = test system: OVCAR-5
[56] = test system: SK-MEL-28
[57] = test system: SN12C
[58] = test system: SNB-78
[59] = test system: TK-10

Measured: GI50

CNS(=O)(=O)NNS(=O)(=O)c1ccc(OC)cc1
inactive: [1] > 100 µM | [2] > 100 µM | [3] > 100 µM | [4] > 100 µM | [5] > 100 µM | [6] > 100 µM | [7] > 100 µM | [8] > 100 µM | [9] > 100 µM | [10] > 100 µM | [11] > 100 µM | [12] > 100 µM | [13] > 100 µM | [15] > 100 µM | [16] > 100 µM | [17] > 100 µM | [18] > 100 µM | [19] > 100 µM | [20] > 100 µM | [21] > 100 µM | [22] > 100 µM | [23] > 100 µM | [24] > 100 µM | [25] > 100 µM | [26] > 100 µM | [27] > 100 µM | [28] > 100 µM | [29] > 100 µM | [30] > 100 µM | [31] > 100 µM | [32] > 100 µM | [33] > 100 µM | [34] > 100 µM | [35] > 100 µM | [36] > 100 µM | [37] > 100 µM | [38] > 100 µM | [39] > 100 µM | [40] > 100 µM | [41] > 100 µM | [42] > 100 µM | [43] > 100 µM | [44] > 100 µM | [45] > 100 µM | [46] > 100 µM | [47] > 100 µM | [48] > 100 µM | [49] > 100 µM | [50] > 100 µM | [51] > 100 µM
> 100 µM: [14]

C/C(=N\NC(=S)NC(CCC(=O)O)C(=O)O)c1cnccn1 (centres undefined)
inactive: [1] > 100 µM | [2] > 100 µM | [3] > 100 µM | [4] > 100 µM | [6] > 100 µM | [7] > 100 µM | [8] > 100 µM | [9] > 100 µM | [11] > 100 µM | [12] > 100 µM | [13] > 100 µM | [15] > 100 µM | [52] > 100 µM | [16] > 100 µM | [53] > 100 µM | [17] > 100 µM | [18] > 100 µM | [19] > 100 µM | [20] > 100 µM | [21] > 100 µM | [22] > 100 µM | [23] > 100 µM | [24] > 100 µM | [25] > 100 µM | [26] > 100 µM | [27] > 100 µM | [54] > 100 µM | [28] > 100 µM | [29] > 100 µM | [30] > 100 µM | [31] > 100 µM | [32] > 100 µM | [55] > 100 µM | [33] > 100 µM | [34] > 100 µM | [35] > 100 µM | [36] > 100 µM | [37] > 100 µM | [38] > 100 µM | [39] > 100 µM | [56] > 100 µM | [40] > 100 µM | [41] > 100 µM | [42] > 100 µM | [57] > 100 µM | [43] > 100 µM | [44] > 100 µM | [58] > 100 µM | [45] > 100 µM | [46] > 100 µM | [59] > 100 µM | [47] > 100 µM | [48] > 100 µM | [49] > 100 µM | [50] > 100 µM | [51] > 100 µM
> 100 µM: [14]

COc1ccc(/C=C\c2cc(OC)c(O[Si](C)(C)C(C)(C)C)c(OC)c2)cc1
inactive: [1] 39.9 µM | [2] 21 µM | [3] 38.6 µM | [4] 31.2 µM | [5] 49.3 µM | [6] 23.7 µM | [7] 68.9 µM | [8] 45.3 µM | [9] 20.3 µM | [10] 44.4 µM | [11] 70 µM | [12] 26.1 µM | [13] 33.7 µM | [16] > 100 µM | [53] 28.3 µM | [17] 15 µM | [18] > 100 µM | [19] 39.1 µM | [20] 45.3 µM | [21] 47.2 µM | [23] 33.7 µM | [24] 45.4 µM | [25] 32.3 µM | [26] 15.8 µM | [27] 34.8 µM | [54] 31.8 µM | [28] 54 µM | [29] 33 µM | [30] 38.5 µM | [31] 55.5 µM | [32] 76.6 µM | [55] 20.6 µM | [33] 15.6 µM | [34] 27.4 µM | [36] 45.8 µM | [37] 45.5 µM | [39] 37.8 µM | [56] 13.2 µM | [40] 23.9 µM | [41] > 10 µM | [42] > 100 µM | [57] 39.1 µM | [43] 47.6 µM | [44] 64.9 µM | [45] 19.7 µM | [46] 33.3 µM | [47] 19.4 µM | [48] 21.7 µM | [49] 55 µM | [50] 80.9 µM | [51] 22.6 µM
